Data set [1] is described as follows: Solubilization of nitroimidazoles in water with and without acids: crystals forced at about 4° C., re-dissolution observed at about 20° C. over about 14 days. Set-up: key to crystals present: − means no crystals present; + means crystal are present. Type of data set: physicochemical. As to conditions: for crystals present: water, about 20° C., 14 days. As to the method:
Heat was applied, if necessary, to dissolve the nitroimidazole. No organic co-solvents, water-soluble vitamins, or cyclodextrins were present in the solutions. The amount of acid was selected to be about equimolar with the amount of nitroimidazole added. After the nitroimidazole was dissolved, each solution was cooled to about 4° C. to force crystallization of some of the nitroimidazole. If crystals were not observed upon cooling, seed crystals of nitroimidazole were added and the solution were again maintained at about 4° C. […] The absence of crystals after 14 days indicates effective dissolution of the nitroimidazole.

For data set [2] the following is noted: in water at neutral pH; cited from earlier work.

As for `CCS(=O)(=O)CCn1c([N+](=O)[O-])cnc1C` [Tinidazole, 1-[2-(ethylsulfonyl)ethyl]-2-methyl-5-nitroimidazole], the crystals present entry in data set [1] (Tinidazole Concentration 0.45%, Acid: Acetic (about equimolar)) is listed as “−”; in data set [1] (Tinidazole Concentration 0.45%, Acid: Citric (about equimolar)), “−”; in data set [1] (Tinidazole Concentration 0.45%, Acid: Hydrochloric (about equimolar)), “−”; in data set [1] (Tinidazole Concentration 0.45%, Acid: None), “−”; in data set [1] (Tinidazole Concentration 0.45%, Acid: Tartaric (about equimolar)), “−”; in data set [1] (Tinidazole Concentration 0.50%, Acid: Acetic (about equimolar)), “−”. Besides, the crystals present entry is “−” in data set [1] (Tinidazole Concentration 0.50%, Acid: Citric (about equimolar)); “−” in data set [1] (Tinidazole Concentration 0.50%, Acid: Hydrochloric (about equimolar)); “+” in data set [1] (Tinidazole Concentration 0.50%, Acid: None); “−” in data set [1] (Tinidazole Concentration 0.50%, Acid: Tartaric (about equimolar)); “+” in data set [1] (Tinidazole Concentration 0.55%, Acid: Acetic (about equimolar)); “−” in data set [1] (Tinidazole Concentration 0.55%, Acid: Citric (about equimolar)). Also, the crystals present result in data set [1] (Tinidazole Concentration 0.55%, Acid: Hydrochloric (about equimolar)) is reported as “−”; in data set [1] (Tinidazole Concentration 0.55%, Acid: None), “+”; in data set [1] (Tinidazole Concentration 0.55%, Acid: Tartaric (about equimolar)), “−”; in data set [1] (Tinidazole Concentration 0.60%, Acid: Acetic (about equimolar)) it was “+”; in data set [1] (Tinidazole Concentration 0.60%, Acid: Citric (about equimolar)) it was “+”; in data set [1] (Tinidazole Concentration 0.60%, Acid: Hydrochloric (about equimolar)) it was “+”. Also, the crystals present result in data set [1] (Tinidazole Concentration 0.60%, Acid: None) is reported as “+”; in data set [1] (Tinidazole Concentration 0.60%, Acid: Tartaric (about equimolar)), “+”. Moreover, in data set [1] (at 20° C., utilizing citric acid and using tartaric acid), the “concentration obtained (as high as), free from crystals” value is “about 0.55 percent by weight”. Besides, in data set [2], the solubility in water entry is listed as “about 0.45 percent by weight”.
On to `Cc1ncc([N+](=O)[O-])n1CCO` [Metronidazole, 1-(2-hydroxyethyl)-2-methyl-5-nitroimidazole], for which the crystals present entry in data set [1] (Metronidazole Concentration 0.8%, Acid: Acetic (about equimolar)) is listed as “−”; in data set [1] (Metronidazole Concentration 0.8%, Acid: Hydrochloric (about equimolar)), “−”; in data set [1] (Metronidazole Concentration 0.8%, Acid: None), “−”; in data set [1] (Metronidazole Concentration 0.8%, Acid: Tartaric (about equimolar)), “−”; in data set [1] (Metronidazole Concentration 1.0%, Acid: Acetic (about equimolar)) it was “−”; in data set [1] (Metronidazole Concentration 1.0%, Acid: Citric (about equimolar)) it was “−”. The crystals present result is reported as “−” in data set [1] (Metronidazole Concentration 1.0%, Acid: Hydrochloric (about equimolar)); “+” in data set [1] (Metronidazole Concentration 1.0%, Acid: None); “−” in data set [1] (Metronidazole Concentration 1.0%, Acid: Tartaric (about equimolar)); “+” in data set [1] (Metronidazole Concentration 1.2%, Acid: Acetic (about equimolar)); “+” in data set [1] (Metronidazole Concentration 1.2%, Acid: Hydrochloric (about equimolar)); “−” in data set [1] (Metronidazole Concentration 1.2%, Acid: Tartaric (about equimolar)). The crystals present entry in data set [1] (Metronidazole Concentration […], Acid: Citric (about equimolar)) is on record as “−”; in data set [1] (Metronidazole Concentration […], Acid: None), “+”. In addition, the “concentration of solutions free from crystals” value in data set [1] (at 20° C., utilizing organic acids (e.g., acetic acid, citric acid, tartaric acid, and malic acid)) is recorded as “at least 1 percent by weight”. Also, the solubility in water result in data set [2] was “less than 1 percent by weight”.

Values taken from patent US20080063670A1, “Nitroimidazole composition and method” (priority 2006, published 2008).
